{
  "source": "ChEMBL document CHEMBL1150880",
  "about": "“Novel and insecticidal isobutylamides from dinosperma erythrococca” (J Nat Prod, 1998)",
  "key": {"Musca domestica [1]": {"system": "Musca domestica", "assay": "Insecticidal activity against housefly at 1000 ppm after 3 to 5 days", "type": "functional, organism-based"}, "Musca domestica [2]": {"system": "Musca domestica", "assay": "Insecticidal activity against housefly at 2500 ppm after 3 to 5 days", "type": "functional, organism-based"}, "Heliothis virescens [3]": {"system": "Heliothis virescens", "assay": "Insecticidal activity against tobacco budworm at 1000 ppm after 3 to 5 days", "type": "functional, organism-based"}, "Musca domestica [4]": {"system": "Musca domestica", "assay": "Insecticidal activity against housefly after 3 to 5 days", "type": "functional, organism-based"}, "Musca domestica [5]": {"system": "Musca domestica", "assay": "Insecticidal activity against housefly after 3 to 5 days relative to cypermethrin", "type": "functional, organism-based"}, "Musca domestica [6]": {"system": "Musca domestica", "assay": "Insecticidal activity against housefly at 500 ppm after 3 to 5 days", "type": "functional, organism-based"}, "Heliothis virescens [7]": {"system": "Heliothis virescens", "assay": "Insecticidal activity against tobacco budworm at 500 ppm after 3 to 5 days", "type": "functional"}, "Musca domestica [8]": {"system": "Musca domestica", "assay": "Insecticidal activity against housefly after 3 to 5 days relative to permethrin", "type": "functional"}, "Heliothis virescens [9]": {"system": "Heliothis virescens", "assay": "Insecticidal activity against tobacco budworm after 3 to 5 days", "type": "functional, organism-based"}, "Heliothis virescens [10]": {"system": "Heliothis virescens", "assay": "Insecticidal activity against tobacco budworm after 3 to 5 days relative to profenofos", "type": "functional"}, "Heliothis virescens [11]": {"system": "Heliothis virescens", "assay": "Insecticidal activity against tobacco budworm at 2500 ppm after 3 to 5 days", "type": "functional, organism-based"}},
  "note": "The source made the active and inactive calls. The calls are words filed in the database; no cut-off is given here.",
  "data": [
    {"compound": "CCCCC/C=C/C=C/C(=O)NCC(C)C", "values": [
      {"measurement": "Activity", "setting": "Musca domestica [1]", "value": "inactive"},
      {"measurement": "Activity", "setting": "Musca domestica [2]", "value": "Active"},
      {"measurement": "Activity", "setting": "Heliothis virescens [3]", "value": "inactive"}
    ]},
    {"compound": "CC(C)CNC(=O)/C=C/C=C/Cc1ccccc1", "values": [
      {"measurement": "EC50", "setting": "Musca domestica [4]", "value": 59.9, "unit": "ppm"},
      {"measurement": "Activity", "setting": "Musca domestica [5]", "value": 1.8, "unit": "%"},
      {"measurement": "Activity", "setting": "Musca domestica [6]", "value": "Active"}
    ]},
    {"compound": "COc1c2c(cc3ccoc13)CCC(C/C=C/C=C/C(=O)NCC(C)C)O2", "note": "(stereo not given)", "values": [
      {"measurement": "Activity", "setting": "Musca domestica [6]", "value": "inactive"},
      {"measurement": "Activity", "setting": "Heliothis virescens [7]", "value": "inactive"}
    ]},
    {"compound": "CC(C)CNC(=O)/C=C/C=C/CC1CCc2ccc(Cl)cc2C1", "note": "(stereo not given)", "values": [
      {"measurement": "Activity", "setting": "Musca domestica [8]", "value": 40, "unit": "%"}
    ]},
    {"compound": "CC(C)CNC(=O)/C=C/C=C/CC1CCc2cc3c(cc2O1)OCO3", "note": "(stereo not given) [ERYTHROCOCCAMIDE A]", "values": [
      {"measurement": "EC50", "setting": "Musca domestica [4]", "value": 20.2, "unit": "ppm"},
      {"measurement": "EC50", "setting": "Musca domestica [5]", "value": 3, "unit": "ppm"},
      {"measurement": "Activity", "setting": "Musca domestica [6]", "value": "Active"},
      {"measurement": "EC50", "setting": "Heliothis virescens [9]", "value": 74.2, "unit": "ppm"},
      {"measurement": "Activity", "setting": "Heliothis virescens [10]", "value": 9.9, "unit": "%"},
      {"measurement": "Activity", "setting": "Musca domestica [8]", "value": 9, "unit": "%"}
    ]},
    {"compound": "CC(C)CNC(=O)CC1CCc2cc3c(cc2O1)OCO3", "note": "(stereo not given)", "values": [
      {"measurement": "Activity", "setting": "Musca domestica [6]", "value": "inactive"},
      {"measurement": "Activity", "setting": "Heliothis virescens [7]", "value": "inactive"}
    ]},
    {"compound": "CC(C)CNC(=O)/C=C/c1ccc2c(c1)OCO2", "values": [
      {"measurement": "Activity", "setting": "Musca domestica [2]", "value": "inactive"},
      {"measurement": "Activity", "setting": "Heliothis virescens [11]", "value": "inactive"}
    ]},
    {"compound": "CC(C)(O)CNC(=O)/C=C/C=C/Cc1ccccc1", "values": [
      {"measurement": "Activity", "setting": "Heliothis virescens [7]", "value": 80, "unit": "%"}
    ]}
  ]
}
